Source: patent EP0089538A1, “Optically active derivatives of phenoxy-benzoic acid, process for their preparation and their use as herbicides” (BAYER AG, priority 1982, dated 1983)

Columns and labels:
Format in all cases: in vivo
[1] = test system: Rüben; test: Pre-emergence test; settings: % damage vs untreated control after three weeks
Description: (§1) Pre-emergence-Test Lösungsmittel: 5 Gewichtsteile Aceton Emulgator: 1 Gewichtsteil Alkylarylpolyglycolether
(§2) Zur Herstellung einer zweckmäßigen Wirkstoffzubereitung vermischt man 1 Gewichtsteil Wirkstoff mit der angegebenen Menge Lösungsmittel, gibt die angegebene Menge Emulgator zu und verdünnt das Konzentrat mit Wasser auf die gewünschte Konzentration.
(§3) Samen der Testpflanzen werden in normalen Boden ausgesät und nach 24 Stunden mit der Wirkstoffzubereitung begossen. Dabei hält man die Wassermenge pro Flächeneinheit zweckmäßigerweise konstant. Die Wirkstoffkonzentration in der Zubereitung spielt keine Rolle, entscheidend ist nur die Aufwandmenge des Wirkstoffs pro Flächeneinheit. Nach drei Wochen wird der Schädigungsgrad der Pflanzen bonitiert in % Schädigung im Vergleich zur Entwicklung der unbehandelten Kontrolle. Es bedeuten: • 0 % = keine Wirkung (wie unbehandelte Kontrolle) 100 % = totale Vernichtung

[2] = test system: Monocotyledoneae; test: Pre-emergence test; settings: average effect on several monocots, % damage vs untreated control after three weeks
Description: as §1, §2, §3

[3] = test system: Soja; test: Pre-emergence test; settings: % damage vs untreated control after three weeks
Description: as §1, §2, §3

[4] = test system: Mais; test: Pre-emergence test; settings: % damage vs untreated control after three weeks
Description: as §1, §2, §3

[5] = test system: Dicotyledoneae; test: Pre-emergence test; settings: average effect on several dicots, % damage vs untreated control after three weeks
Description: as §1, §2, §3

[6] = test system: Rüben; test: Post-emergence test; settings: % damage vs untreated control after three weeks
Description: (§4) Post-emergence-Test Lösungsmittel: 5 Gewichtsteile Aceton Emulgator : 1 Gewichtsteil Alkylarylpolyglycolether
as §2
(§5) Mit der Wirkstoffzubereitung spritzt man Testpflanzen, welche eine Höhe von 5 - 15 cm haben so, daß die jeweils gewünschten Wirkstoffmengen pro Flächeneinheit ausgebracht werden. Die Konzentration der Spritzbrühe wird so gewählt, daß in 2000 1 Wasser/ha die jeweils gewünschten Wirkstoffmengen ausgebracht werden. Nach drei Wochen wird der Schädigungsgrad der Pflanzen bonitiert in % Schädigung im Vergleich zur Entwicklung der unbehandelten Kontrolle. Es bedeuten: • 0 % = keine Wirkung (wie unbehandelte Kontrolle) 100 % = totale Vernichtung

[7] = test system: Monocotyledoneae; test: Post-emergence test; settings: average effect on several monocots, % damage vs untreated control after three weeks
Description: as §4, §2, §5

[8] = test system: Soja; test: Post-emergence test; settings: % damage vs untreated control after three weeks
Description: as §4, §2, §5

[9] = test system: Mais; test: Post-emergence test; settings: % damage vs untreated control after three weeks
Description: as §4, §2, §5

[10] = test system: Dicotyledoneae; test: Post-emergence test; settings: average effect on several dicots, % damage vs untreated control after three weeks
Description: as §4, §2, §5

[11] = test system: Testpflanzen; test: Pre-emergence test, overall comparison with racemates; settings: compared with the corresponding racemic compounds (A) and (B)
Description: as §1, §2, §3

[12] = test system: Testpflanzen; test: Post-emergence test, overall comparison with racemates; settings: compared with the corresponding racemic compounds (A) and (B)
Description: as §4, §2, §5

SMILES | Wirkung (in %) Rüben ([1]; 1 kg/ha) | Wirkung (in %) Monocotyledoneae ([2]; 1 kg/ha) | Wirkung (in %) Soja ([3]; 1 kg/ha) | Wirkung (in %) Mais ([4]; 1 kg/ha) | Wirkung (in %) Dicotyledoneae ([5]; 1 kg/ha) | Wirkung (in %) Rüben ([6]; 1 kg/ha) | Wirkung (in %) Monocotyledoneae ([7]; 1 kg/ha) | Wirkung (in %) Soja ([8]; 1 kg/ha) | Wirkung (in %) Mais ([9]; 1 kg/ha) | Wirkung (in %) Dicotyledoneae ([10]; 1 kg/ha) | herbizide Wirksamkeit [11] | herbizide Wirksamkeit [12] | further results
CCOC(=O)C(C)OC(=O)c1cc(Oc2ccc(C(F)(F)F)cc2Cl)ccc1[N+](=O)[O-] (racemic) [(B), 5-(2-Chlor-4-trifluormethyl-phenoxy)-2-nitro-benzoesäure-(1-ethoxycarbonylethyl)-ester, reference compound] | 100% | 61,4% | 0% | 0% | 81,4% | 100% | 89,1% | 99% | 95% | 99,9% |  |  | 
CCOC(=O)C(C)OC(=O)c1cc(Oc2c(Cl)cc(C(F)(F)F)cc2Cl)ccc1[N+](=O)[O-] (racemic) [(A), 5-(2,6-Dichlor-4-trifluormethyl-phenoxy)-2-nitro-benzoesäure-(1-ethoxycarbonyl-ethyl)-ester, reference compound] | 100% | 69,3% | 40% | 10% | 95,6% | 100% | 92% | 100% | 95% | 100% |  |  | 
CCOC(=O)[C@H](C)OC(=O)c1cc(Oc2c(Cl)cc(C(F)(F)F)cc2Cl)ccc1[N+](=O)[O-] [(1), 5-(2,6-Dichlor-4-trifluor-methyl-phenoxy)-2-nitrobenzoesäure-(1-ethoxycarbonyl-ethyl)-ester] |  |  |  |  |  |  |  |  |  |  | bessere herbizide Wirksamkeit | bessere herbizide Wirksamkeit | Wirkung (in %) Rüben ([1]; 0,45 kg/ha): 99%; Wirkung (in %) Monocotyledoneae ([2]; 0,45 kg/ha): 42,1%; Wirkung (in %) Soja ([3]; 0,45 kg/ha): 10%; Wirkung (in %) Mais ([4]; 0,45 kg/ha): 0%; Wirkung (in %) Dicotyledoneae ([5]; 0,45 kg/ha): 88,6%; Wirkung (in %) Rüben ([6]; 0,45 kg/ha): 100%; Wirkung (in %) Monocotyledoneae ([7]; 0,45 kg/ha): 89,9%; Wirkung (in %) Soja ([8]; 0,45 kg/ha): 100%; Wirkung (in %) Mais ([9]; 0,45 kg/ha): 95%; Wirkung (in %) Dicotyledoneae ([10]; 0,45 kg/ha): 99,9%
CCOC(=O)[C@H](C)OC(=O)c1cc(Oc2ccc(C(F)(F)F)cc2Cl)ccc1[N+](=O)[O-] [(2), 5-(2-Chlor-4-trifluormethyl-phenoxy)-2-nitro-benzoesäure-(1-ethoxycarbonyl-ethyl)-ester] |  |  |  |  |  |  |  |  |  |  | bessere herbizide Wirksamkeit | bessere herbizide Wirksamkeit | Wirkung (in %) Rüben ([1]; 0,51 kg/ha): 99%; Wirkung (in %) Monocotyledoneae ([2]; 0,51 kg/ha): 74,1%; Wirkung (in %) Soja ([3]; 0,51 kg/ha): 0%; Wirkung (in %) Mais ([4]; 0,51 kg/ha): 0%; Wirkung (in %) Dicotyledoneae ([5]; 0,51 kg/ha): 77,1%; Wirkung (in %) Rüben ([6]; 0,51 kg/ha): 100%; Wirkung (in %) Monocotyledoneae ([7]; 0,51 kg/ha): 83,3%; Wirkung (in %) Soja ([8]; 0,51 kg/ha): 99%; Wirkung (in %) Mais ([9]; 0,51 kg/ha): 100%; Wirkung (in %) Dicotyledoneae ([10]; 0,51 kg/ha): 99,9%
